In patent US10131690B2, “C6S specific transporter molecules” (PHI PHARMA SA, priority 2014, dated 2018):
Where a SMILES comes first, the peptide text is derived from it. Where no end group is shown, it is not given here. [ ]: non-standard residue; d: D form. 3'AdT = not defined here

How the values were obtained:
[1] = stability in fetal calf serum (estimation of in vivo stability); type: in vitro ADME; conditions: 37° C.; for degradation in fetal calf serum: 6 hr
Method: The stability of peptides of the invention was estimated by mixing the peptides with fetal calf serum and incubating at 37° C. for 6 hr. Samples were tested at both 0 and 6 hours.

[2] = tested on: MDCK cells; test: viability of MDCK cell cultures by trypan blue exclusion; type: cell-based; conditions: 96 hour incubation, 0.5 μM to 10 μM, FIG. 9
Method: The activity of peptides of the invention as targeting moieties was tested in vitro in preliminary studies using cells lines expressing C6S. The nucleoside analog 3′ amino deoxythymidine (3′AdT) was conjugated to the amino-terminus of the peptide “RYK” (RYKvFIKYRh (SEQ ID NO:8)) using a single D-Glu residue (3′AdT-e-RYK).
Confluent cultures of MDCK were passaged at 1/20 dilution and exponentionally growing cells were incubated for 96 hours with concentrations of the nucleoside analog conjugates ranging from 0.5 μM to 10 μM. Viability was subsequently assessed using trypan blue exclusion.

[3] = tested on: heparan sulfate (HS), chondroitin-4-sulfate (C4S), keratin sulfate (KS), HA; test: modified ELISA, binding to C6S compared with other proteoglycans; conditions: KS (FIG. 5), HS and HA (FIG. 6B)
Method: (§1) The binding of the nine-mer peptides of the invention to C6S as predicted by the models, in particular, as compared to the binding to other proteoglycans was tested using a modified ELISA protocol. ELISA plates were coated overnight with 1 mg/ml of heparin sulfate (HS), chondroitin-4-sulfate (C4S), chondroitin-6-sulfate (C6S) or keratin sulfate (KS) in PBS. The wells were then washed with PBS and incubated for 1 hour at room temperature with 1 mg/ml of an exemplary peptide of the invention having the sequence RYKvFIKYRh (“RYK-C6S”; SEQ ID NO:7) or a standard TAT peptide. The plates were then thoroughly washed with PBS and subsequently photographed with a LUMASCOPE™ luminescent microscope. Images were then quantified using the ImageJ software (FIG. 5).
(§2) The impact of sequence variation on specific binding was also investigated with select peptides using the above described modified ELISA.

[4] = tested on: chondroitin-6-sulfate (C6S); test: modified ELISA, binding of peptides to plate-coated C6S; conditions: plates coated with 1 mg/ml C6S; 1 mg/ml peptide, 1 hour, room temperature; FIG. 5, 6A, 6B
Method: as §1
The same modified ELISA protocol was used to examine the impact on the specific binding to C6S by modifying the freely-selectable positions 2, 4, 6, 8 and (5 or 7).
as §2

For `N=C(N)NCCC[C@H](NC(=O)[C@H](Cc1ccc(O)cc1)NC(=O)[C@H](CCCCN)NC(=O)[C@H](Cc1c[nH]c2ccccc12)NC(=O)[C@H](CO)NC(=O)CNC(=O)[C@H](CCCCN)NC(=O)[C@H](Cc1ccccc1)NC(=O)[C@@H](N)CCCNC(=N)N)C(=O)O` [RFKGSWKYR] (H-RFKGSWKYR-OH; N-terminus and C-terminus assumed), the “degradation in fetal calf serum” value [1] was “completely degraded”.

In the case of `CC[C@H](C)[C@H](NC(=O)[C@H](Cc1ccccc1)NC(=O)[C@H](NC(=O)[C@H](CCCCN)NC(=O)[C@H](Cc1ccc(O)cc1)NC(=O)[C@@H](N)CCCNC(=N)N)C(C)C)C(=O)N[C@@H](CCCCN)C(=O)N[C@@H](Cc1ccc(O)cc1)C(=O)N[C@@H](CCCNC(=N)N)C(=O)N[C@H](Cc1c[nH]cn1)C(=O)O` [RYK-C6S, RYKvFIKYRh] (H-RYK[dV]FIKYR[dH]-OH; N-terminus and C-terminus assumed), the “degradation in fetal calf serum” value [1] is reported as “no degradation” and the remaining at 6 h ([1]; fetal calf serum, 6 hours) is reported as 100%.

For “D-linked conjugate: 3′AdT conjugated to the amino-terminus of the peptide RYK (RYKvFIKYRh) using a single D-Glu residue ({3'AdT}-[dE]RYK[dV]FIKYR[dH]; reading uncertain; also: printed as RYKvFIKYRh)”, the “concentration with substantial effects on viability” value [2] was ≥ 0.5 µM.

In the case of RGKPRFYQR, the “selectivity of binding for C6S over other proteoglycans” value [3] is reported as “either eliminated binding activity to any proteoglycan or eliminated the specificity to C6S”.

For “RKKRRQRR (Artificial TAT peptide control) [standard TAT peptide]”, the “binding to C6S” value [4] was “increases in binding that were likely non-selective”.

With RRRRRRRRR [pure arginine 9-mer] the “binding to C6S” value [4] was “increases in binding that were likely non-selective”.

With “RYFvRIKYR (RYF[dV]RIKYR) [control peptide, replacement of Lys3 with a Phe]” the “binding to C6S” value [4] was “eliminated binding to C6S”.

With “RYKvFIKPRh (RYK[dV]FIKPR[dH]) [control peptide with proline at position 8]” the “binding to C6S” value [4] was “eliminated binding activity”.
